{"source": "ChEMBL document CHEMBL4049403", "about": "“Oligo-aspartic acid conjugates with benzo[c][2,6]naphthyridine-8-carboxylic acid scaffold as picomolar inhibitors of CK2” (Bioorg Med Chem, 2017)", "key": {"[1]": {"biological_target": "Aurora kinase B (Homo sapiens) (UniProt Q96GD4)", "assay": "Inhibition of human Aurora B assessed as residual activity at 1 uM in presence of [33P]ATP by filter binding assay relative to control"}, "[2]": {"biological_target": "Dual specificity tyrosine-phosphorylation-regulated kinase 3 (Homo sapiens) (UniProt O43781)", "assay": "Inhibition of human DYRK3 assessed as residual activity at 1 uM in presence of 33P-ATP by filter-binding assay relative to control"}, "[3]": {"biological_target": "AMP-activated protein kinase, AMPK (Homo sapiens) (UniProt P54646+O43741+P54619+Q9UGJ0+Q9Y478+Q13131+Q9UGI9)", "assay": "Inhibition of human AMPK assessed as residual activity at 1 uM in presence of 33P-ATP by filter-binding assay relative to control"}, "[4]": {"biological_target": "Mitogen-activated protein kinase 7 (Homo sapiens) (UniProt Q13164)", "assay": "Inhibition of human ERK5 assessed as residual activity at 1 uM in presence of 33P-ATP by filter-binding assay relative to control"}, "[5]": {"biological_target": "Mitogen-activated protein kinase kinase kinase 9 (Homo sapiens) (UniProt P80192)", "assay": "Inhibition of human MLK1 assessed as residual activity at 1 uM in presence of 33P-ATP by filter-binding assay relative to control"}, "[6]": {"biological_target": "Protein-tyrosine kinase 6 (Homo sapiens) (UniProt Q13882)", "sequence (Q13882 whole entry, looked up)": "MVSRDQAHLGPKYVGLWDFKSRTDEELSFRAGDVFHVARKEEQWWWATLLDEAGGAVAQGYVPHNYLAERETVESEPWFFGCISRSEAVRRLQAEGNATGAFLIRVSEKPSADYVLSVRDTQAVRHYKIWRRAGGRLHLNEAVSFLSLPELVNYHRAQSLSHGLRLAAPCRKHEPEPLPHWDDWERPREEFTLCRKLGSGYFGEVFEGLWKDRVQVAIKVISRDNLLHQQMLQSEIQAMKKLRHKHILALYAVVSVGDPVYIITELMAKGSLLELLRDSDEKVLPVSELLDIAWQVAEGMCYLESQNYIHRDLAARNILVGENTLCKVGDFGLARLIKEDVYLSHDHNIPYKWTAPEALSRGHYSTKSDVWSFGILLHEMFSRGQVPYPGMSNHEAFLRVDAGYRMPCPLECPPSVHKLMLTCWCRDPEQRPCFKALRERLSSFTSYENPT", "assay": "Inhibition of human BRK assessed as residual activity at 1 uM in presence of 33P-ATP by filter-binding assay relative to control"}, "[7]": {"biological_target": "Ribosomal protein S6 kinase alpha-5 (Homo sapiens) (UniProt O75582)", "sequence (O75582 whole entry, looked up)": "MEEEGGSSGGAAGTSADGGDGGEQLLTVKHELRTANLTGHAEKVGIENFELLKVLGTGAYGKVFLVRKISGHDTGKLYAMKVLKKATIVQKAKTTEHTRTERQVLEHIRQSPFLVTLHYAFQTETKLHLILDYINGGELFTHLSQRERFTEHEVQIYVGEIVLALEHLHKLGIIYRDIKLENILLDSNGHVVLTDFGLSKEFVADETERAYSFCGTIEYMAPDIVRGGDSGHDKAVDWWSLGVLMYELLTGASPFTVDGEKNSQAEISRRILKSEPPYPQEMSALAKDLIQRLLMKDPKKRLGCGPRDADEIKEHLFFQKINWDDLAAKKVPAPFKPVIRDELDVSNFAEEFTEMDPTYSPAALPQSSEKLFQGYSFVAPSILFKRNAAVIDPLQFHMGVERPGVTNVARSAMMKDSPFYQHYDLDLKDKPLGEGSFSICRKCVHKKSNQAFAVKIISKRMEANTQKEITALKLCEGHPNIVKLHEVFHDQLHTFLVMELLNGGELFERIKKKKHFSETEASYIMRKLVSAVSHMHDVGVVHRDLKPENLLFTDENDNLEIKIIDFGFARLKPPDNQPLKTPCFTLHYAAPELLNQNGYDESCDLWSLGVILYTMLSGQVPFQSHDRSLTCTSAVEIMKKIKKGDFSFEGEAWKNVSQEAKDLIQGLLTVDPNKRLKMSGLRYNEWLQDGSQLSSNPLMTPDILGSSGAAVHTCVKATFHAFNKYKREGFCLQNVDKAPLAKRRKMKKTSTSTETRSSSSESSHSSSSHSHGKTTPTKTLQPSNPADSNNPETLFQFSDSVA", "assay": "Inhibition of human MSK1 assessed as residual activity at 1 uM in presence of 33P-ATP by filter-binding assay relative to control"}, "[8]": {"biological_target": "Ribosomal protein S6 kinase alpha-3 (Homo sapiens) (UniProt P51812)", "assay": "Inhibition of human RSK2 assessed as residual activity at 1 uM in presence of 33P-ATP by filter-binding assay relative to control"}, "[9]": {"species_on_record": "Homo sapiens", "assay": "Inhibition of human VEGFR assessed as residual activity at 1 uM in presence of 33P-ATP by filter-binding assay relative to control"}, "[10]": {"biological_target": "Serine/threonine-protein kinase pim-1 (Homo sapiens) (UniProt P11309)", "assay": "Inhibition of human PIM1 assessed as residual activity at 1 uM in presence of 33P-ATP by filter-binding assay relative to control"}, "[11]": {"biological_target": "Serine/threonine-protein kinase 26 (Homo sapiens) (UniProt Q9P289)", "assay": "Inhibition of human MST4 assessed as residual activity at 1 uM in presence of [33P]ATP by filter binding assay relative to control"}, "[12]": {"biological_target": "Proto-oncogene tyrosine-protein kinase Src (Homo sapiens) (UniProt P12931)", "assay": "Inhibition of human Src assessed as residual activity at 1 uM in presence of [33P]ATP by filter binding assay relative to control"}, "[13]": {"biological_target": "Serine/threonine-protein kinase MARK1 (Homo sapiens) (UniProt Q9P0L2)", "assay": "Inhibition of human MARK1 assessed as residual activity at 1 uM in presence of [33P]ATP by filter binding assay relative to control"}, "[14]": {"biological_target": "Casein kinase I isoform delta (Homo sapiens) (UniProt P48730)", "assay": "Inhibition of human CK1delta assessed as residual activity at 1 uM in presence of [33P]ATP by filter binding assay relative to control"}, "[15]": {"biological_target": "Serine/threonine-protein kinase STK11 (Homo sapiens) (UniProt Q15831)", "assay": "Inhibition of human LKB1 assessed as residual activity at 1 uM in presence of [33P]ATP by filter binding assay relative to control"}, "[16]": {"biological_target": "Homeodomain-interacting protein kinase 1 (Homo sapiens) (UniProt Q86Z02)", "assay": "Inhibition of human HIPK1 assessed as residual activity at 1 uM in presence of [33P]ATP by filter binding assay relative to control"}, "[17]": {"biological_target": "Serine/threonine-protein kinase SIK3 (Homo sapiens) (UniProt Q9Y2K2)", "sequence (Q9Y2K2 whole entry, looked up)": "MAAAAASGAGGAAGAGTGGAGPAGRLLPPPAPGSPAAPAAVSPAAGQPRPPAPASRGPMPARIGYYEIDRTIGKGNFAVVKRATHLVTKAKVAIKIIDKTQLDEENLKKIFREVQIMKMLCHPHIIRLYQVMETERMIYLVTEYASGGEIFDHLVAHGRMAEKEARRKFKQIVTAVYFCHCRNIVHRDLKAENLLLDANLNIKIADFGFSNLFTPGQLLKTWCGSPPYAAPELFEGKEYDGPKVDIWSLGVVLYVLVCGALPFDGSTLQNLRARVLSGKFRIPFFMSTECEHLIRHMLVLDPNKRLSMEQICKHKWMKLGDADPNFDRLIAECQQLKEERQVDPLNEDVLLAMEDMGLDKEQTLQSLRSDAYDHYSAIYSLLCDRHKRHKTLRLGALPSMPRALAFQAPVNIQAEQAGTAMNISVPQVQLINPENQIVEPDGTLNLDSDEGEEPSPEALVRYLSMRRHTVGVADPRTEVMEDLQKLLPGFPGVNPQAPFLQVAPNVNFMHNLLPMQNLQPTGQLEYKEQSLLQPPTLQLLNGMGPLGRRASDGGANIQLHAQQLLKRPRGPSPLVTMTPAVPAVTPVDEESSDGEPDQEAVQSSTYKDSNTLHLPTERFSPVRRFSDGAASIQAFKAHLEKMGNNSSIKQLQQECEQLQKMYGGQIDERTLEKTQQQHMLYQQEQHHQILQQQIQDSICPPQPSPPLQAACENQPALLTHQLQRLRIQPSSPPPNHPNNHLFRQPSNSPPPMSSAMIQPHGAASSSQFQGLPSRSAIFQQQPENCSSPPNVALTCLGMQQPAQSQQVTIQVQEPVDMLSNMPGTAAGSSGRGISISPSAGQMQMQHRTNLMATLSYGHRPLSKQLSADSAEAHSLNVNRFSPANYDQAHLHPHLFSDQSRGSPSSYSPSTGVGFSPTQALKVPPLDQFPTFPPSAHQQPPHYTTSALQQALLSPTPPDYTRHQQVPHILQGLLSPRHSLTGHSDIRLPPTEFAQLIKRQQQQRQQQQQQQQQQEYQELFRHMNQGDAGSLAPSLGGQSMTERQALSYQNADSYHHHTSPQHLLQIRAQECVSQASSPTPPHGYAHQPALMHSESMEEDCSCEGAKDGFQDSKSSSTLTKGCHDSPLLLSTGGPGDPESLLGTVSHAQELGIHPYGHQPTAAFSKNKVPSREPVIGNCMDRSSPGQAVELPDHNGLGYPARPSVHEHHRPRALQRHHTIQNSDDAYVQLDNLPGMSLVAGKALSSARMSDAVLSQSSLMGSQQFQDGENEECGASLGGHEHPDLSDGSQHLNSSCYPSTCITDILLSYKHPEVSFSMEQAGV", "assay": "Inhibition of human SIK3 assessed as residual activity at 1 uM in presence of [33P]ATP by filter binding assay relative to control"}, "[18]": {"biological_target": "Serine/threonine-protein kinase ULK1 (Homo sapiens) (UniProt O75385)", "sequence (O75385 whole entry)": "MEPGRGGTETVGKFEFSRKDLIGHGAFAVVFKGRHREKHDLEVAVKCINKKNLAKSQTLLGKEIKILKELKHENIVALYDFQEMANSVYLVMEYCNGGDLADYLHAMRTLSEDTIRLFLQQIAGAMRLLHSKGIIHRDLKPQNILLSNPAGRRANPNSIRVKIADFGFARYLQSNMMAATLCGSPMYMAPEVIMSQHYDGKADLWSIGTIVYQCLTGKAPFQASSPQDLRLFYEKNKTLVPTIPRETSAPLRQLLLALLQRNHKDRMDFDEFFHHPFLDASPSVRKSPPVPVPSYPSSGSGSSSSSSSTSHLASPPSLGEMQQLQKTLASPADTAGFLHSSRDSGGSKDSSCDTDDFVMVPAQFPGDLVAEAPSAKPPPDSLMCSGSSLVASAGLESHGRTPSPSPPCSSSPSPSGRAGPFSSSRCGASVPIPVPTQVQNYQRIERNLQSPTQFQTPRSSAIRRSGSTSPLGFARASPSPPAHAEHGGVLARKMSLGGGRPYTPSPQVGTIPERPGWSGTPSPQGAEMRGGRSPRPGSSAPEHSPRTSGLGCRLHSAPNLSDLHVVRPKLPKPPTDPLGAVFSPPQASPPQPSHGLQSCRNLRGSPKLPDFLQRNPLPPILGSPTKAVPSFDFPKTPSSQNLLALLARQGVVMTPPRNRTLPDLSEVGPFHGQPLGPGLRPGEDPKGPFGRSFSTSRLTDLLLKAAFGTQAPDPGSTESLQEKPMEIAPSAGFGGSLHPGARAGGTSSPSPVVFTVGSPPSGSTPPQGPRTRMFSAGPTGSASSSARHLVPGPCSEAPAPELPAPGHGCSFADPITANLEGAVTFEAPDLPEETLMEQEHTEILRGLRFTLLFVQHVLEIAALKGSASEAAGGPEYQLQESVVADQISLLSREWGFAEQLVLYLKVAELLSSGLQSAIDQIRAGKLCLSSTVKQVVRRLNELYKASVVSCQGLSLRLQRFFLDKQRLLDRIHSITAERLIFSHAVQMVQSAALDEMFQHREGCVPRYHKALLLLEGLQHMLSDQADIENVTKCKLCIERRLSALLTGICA", "assay": "Inhibition of human ULK1 assessed as residual activity at 1 uM in presence of [33P]ATP by filter binding assay relative to control"}, "[19]": {"biological_target": "Tyrosine-protein kinase Yes (Homo sapiens) (UniProt P07947)", "assay": "Inhibition of human YES1 assessed as residual activity at 1 uM in presence of [33P]ATP by filter binding assay relative to control"}, "[20]": {"biological_target": "Serine/threonine-protein kinase BRSK2 (Homo sapiens) (UniProt Q8IWQ3)", "assay": "Inhibition of human BRSK2 assessed as residual activity at 1 uM in presence of [33P]ATP by filter binding assay relative to control"}, "[21]": {"biological_target": "MAP kinase-activated protein kinase 5 (Homo sapiens) (UniProt Q8IW41)", "sequence (Q8IW41 whole entry)": "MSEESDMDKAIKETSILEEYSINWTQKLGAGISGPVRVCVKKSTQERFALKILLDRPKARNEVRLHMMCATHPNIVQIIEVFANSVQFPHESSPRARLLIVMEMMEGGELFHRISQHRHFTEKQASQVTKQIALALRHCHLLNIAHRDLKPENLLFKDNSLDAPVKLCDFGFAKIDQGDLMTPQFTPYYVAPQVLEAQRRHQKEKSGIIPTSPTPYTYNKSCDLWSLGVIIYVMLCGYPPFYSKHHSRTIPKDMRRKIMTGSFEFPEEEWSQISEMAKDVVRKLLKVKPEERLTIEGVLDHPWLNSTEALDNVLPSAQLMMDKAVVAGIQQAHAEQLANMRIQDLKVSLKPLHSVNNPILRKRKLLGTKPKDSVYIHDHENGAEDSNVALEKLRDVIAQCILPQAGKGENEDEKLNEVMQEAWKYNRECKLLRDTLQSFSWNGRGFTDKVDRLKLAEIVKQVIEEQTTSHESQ", "assay": "Inhibition of human PRAK assessed as residual activity at 1 uM in presence of [33P]ATP by filter binding assay relative to control"}, "[22]": {"biological_target": "Serine/threonine-protein kinase ULK2 (Homo sapiens) (UniProt Q8IYT8)", "assay": "Inhibition of human ULK2 assessed as residual activity at 1 uM in presence of [33P]ATP by filter binding assay relative to control"}, "[23]": {"biological_target": "Serine/threonine-protein kinase 24 (Homo sapiens) (UniProt Q9Y6E0)", "sequence (Q9Y6E0 whole entry, looked up)": "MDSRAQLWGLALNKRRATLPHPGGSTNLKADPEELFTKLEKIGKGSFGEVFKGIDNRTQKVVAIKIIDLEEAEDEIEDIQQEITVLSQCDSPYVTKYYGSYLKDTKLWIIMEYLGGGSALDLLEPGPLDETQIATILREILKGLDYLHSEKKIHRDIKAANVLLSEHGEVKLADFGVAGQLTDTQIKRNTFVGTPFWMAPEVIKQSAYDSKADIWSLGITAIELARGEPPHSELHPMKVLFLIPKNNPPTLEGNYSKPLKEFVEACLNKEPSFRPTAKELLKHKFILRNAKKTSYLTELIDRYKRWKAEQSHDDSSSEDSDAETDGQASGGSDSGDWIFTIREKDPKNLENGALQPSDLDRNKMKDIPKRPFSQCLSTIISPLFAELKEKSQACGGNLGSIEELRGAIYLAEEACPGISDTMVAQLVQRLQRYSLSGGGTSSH", "assay": "Inhibition of human MST3 assessed as residual activity at 1 uM in presence of [33P]ATP by filter binding assay relative to control"}, "[24]": {"biological_target": "Protein kinase C zeta type (Homo sapiens) (UniProt Q05513)", "assay": "Inhibition of human PKCZ assessed as residual activity at 1 uM in presence of [33P]ATP by filter binding assay relative to control"}, "[25]": {"biological_target": "Aurora kinase A (Homo sapiens) (UniProt O14965)", "assay": "Inhibition of human Aurora A assessed as residual activity at 1 uM in presence of [33P]ATP by filter binding assay relative to control"}, "[26]": {"biological_target": "Myosin light chain kinase, smooth muscle (Homo sapiens) (UniProt Q15746)", "assay": "Inhibition of human SmMLCK assessed as residual activity at 1 uM in presence of [33P]ATP by filter binding assay relative to control"}, "[27]": {"biological_target": "MAP kinase-activated protein kinase 2 (Homo sapiens) (UniProt P49137)", "sequence (P49137 whole entry, looked up)": "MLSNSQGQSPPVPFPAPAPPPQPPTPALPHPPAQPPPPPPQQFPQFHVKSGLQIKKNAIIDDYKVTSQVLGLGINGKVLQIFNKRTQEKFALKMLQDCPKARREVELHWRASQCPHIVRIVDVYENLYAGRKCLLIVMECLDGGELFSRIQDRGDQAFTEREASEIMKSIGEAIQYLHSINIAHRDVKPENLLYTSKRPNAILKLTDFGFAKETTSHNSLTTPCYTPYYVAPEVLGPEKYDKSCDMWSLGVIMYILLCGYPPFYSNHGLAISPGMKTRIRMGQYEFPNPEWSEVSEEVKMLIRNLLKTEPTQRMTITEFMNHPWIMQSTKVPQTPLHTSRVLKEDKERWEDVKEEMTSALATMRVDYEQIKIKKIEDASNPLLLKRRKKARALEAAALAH", "assay": "Inhibition of human MAPKAP-K2 assessed as residual activity at 1 uM in presence of [33P]ATP by filter binding assay relative to control"}, "[28]": {"biological_target": "Interleukin-1 receptor-associated kinase 4 (Homo sapiens) (UniProt Q9NWZ3)", "assay": "Inhibition of human IRAK4 assessed as residual activity at 1 uM in presence of [33P]ATP by filter binding assay relative to control"}, "[29]": {"biological_target": "Serine/threonine-protein kinase OSR1 (Homo sapiens) (UniProt O95747)", "assay": "Inhibition of human OSR1 assessed as residual activity at 1 uM in presence of [33P]ATP by filter binding assay relative to control"}}, "note": "Where a SMILES comes first, the peptide text is derived from it. The star is where a group is joined. X1 = O=C(O)c1ccc2c(c1)nc(OCCCCCCCCC(=O)*)c1ccncc12"}
{"smiles": "NCCCC[C@H](NC(=O)[C@H](CC(=O)O)NC(=O)[C@H](CC(=O)O)NC(=O)[C@H](CC(=O)O)NC(=O)[C@H](CC(=O)O)NC(=O)[C@H](CC(=O)O)NC(=O)[C@H](CC(=O)O)NC(=O)CCCCCCCCOc1nc2cc(C(=O)O)ccc2c2cnccc12)C(=O)O", "note": "(X1-DDDDDDK-OH)", "values": [{"measurement": "Activity", "setting": "[1]", "value": 86, "unit": "%"}, {"measurement": "Activity", "setting": "[2]", "value": 4, "unit": "%"}, {"measurement": "Activity", "setting": "[3]", "value": 11, "unit": "%"}, {"measurement": "Activity", "setting": "[4]", "value": 39, "unit": "%"}, {"measurement": "Activity", "setting": "[5]", "value": 42, "unit": "%"}, {"measurement": "Activity", "setting": "[6]", "value": 51, "unit": "%"}, {"measurement": "Activity", "setting": "[7]", "value": 58, "unit": "%"}, {"measurement": "Activity", "setting": "[8]", "value": 62, "unit": "%"}, {"measurement": "Activity", "setting": "[9]", "value": 63, "unit": "%"}, {"measurement": "Activity", "setting": "[10]", "value": 64, "unit": "%"}, {"measurement": "Activity", "setting": "[11]", "value": 67, "unit": "%"}, {"measurement": "Activity", "setting": "[12]", "value": 67, "unit": "%"}, {"measurement": "Activity", "setting": "[13]", "value": 79, "unit": "%"}, {"measurement": "Activity", "setting": "[14]", "value": 82, "unit": "%"}, {"measurement": "Activity", "setting": "[15]", "value": 83, "unit": "%"}, {"measurement": "Activity", "setting": "[16]", "value": 86, "unit": "%"}, {"measurement": "Activity", "setting": "[17]", "value": 90, "unit": "%"}, {"measurement": "Activity", "setting": "[18]", "value": 90, "unit": "%"}, {"measurement": "Activity", "setting": "[19]", "value": 91, "unit": "%"}, {"measurement": "Activity", "setting": "[20]", "value": 91, "unit": "%"}, {"measurement": "Activity", "setting": "[21]", "value": 92, "unit": "%"}, {"measurement": "Activity", "setting": "[22]", "value": 93, "unit": "%"}, {"measurement": "Activity", "setting": "[23]", "value": 93, "unit": "%"}, {"measurement": "Activity", "setting": "[24]", "value": 95, "unit": "%"}, {"measurement": "Activity", "setting": "[25]", "value": 97, "unit": "%"}, {"measurement": "Activity", "setting": "[26]", "value": 98, "unit": "%"}, {"measurement": "Activity", "setting": "[27]", "value": 100, "unit": "%"}, {"measurement": "Activity", "setting": "[28]", "value": 103, "unit": "%"}, {"measurement": "Activity", "setting": "[29]", "value": 111, "unit": "%"}]}
